Common to all, as to type: cell-based
In experiment [1] the test system is endothelial cells. As to the kind of experiment: FDA staining and fluorescence microscopy of endothelial cell cultures (Example One). To be noted: for endothelial cell adhesion: 100 μg added, 15,000 cells per well, day 1; for spreading of endothelial cells: day 5. As for the experimental part: In Example 1, […] of L-ascorbic acid, 100 μg of sirolimus, and 100 μg paclitaxel were added to separate endothelial cell cultures (15,000 cells per well). A control cell culture was also provided in which no agent was added. The endothelial cell adhesion in the culture well was investigated by staining the live cells with fluorescein diacetate (FDA). The FDA-stained live cells were then imaged using fluorescence microscopy on day one, day 3, day five, and day seven of culture. After five days, a determination of the spreading of endothelial cells was made. After seven days, a determination of growth (viability and proliferation) of endothelial cells was made.

Experiment [2] concerns endothelial cells. As to the kind of experiment: Phase contrast microscopy of endothelial cell morphology (Example Six). To be noted: 100 μg added, day 7, phase contrast. As to the method:
In Example 6, 100 μg of L-ascorbic acid, 100 μg of sirolimus, and 100 μg paclitaxel were added to separate endothelial cell cultures. A control cell culture was also provided in which no agent was added. The effects of L-AA, SIR, and PAT on the growth of endothelial cells was investigated by taking phase contrast images of cells after 7 days using an Axiovert 200 M inverted microscopy (Carl Zeiss) in the bright field imaging mode and examining the cell morphology.

For experiment [3], the system named is smooth muscle cells. As to the kind of experiment: Resazurin fluorometric assay of smooth muscle cell cultures (Example Eight). To be noted: for number of smooth muscle cells in comparison to the control: day 1; for smooth muscle cell growth vs control: day 3. As for the experimental part:
(§1) In Example 8, a quantitative resazurin fluorometric assay was used. A solution of alamarBlue® from a kit purchased from Biotium Inc. (in Hayward, Calif.) was added to the smooth muscle cell cultures which were already treated with ascorbic acid, sirolimus, or paclitaxel. A control lacking any therapeutic agent was also included. After respective time points (1, 3, 5, and 7 days), the fluorescence of the solution was measured using a microplate reader. The collected data is provided as relative fluorescence units (RFU) vs. time for all the three groups (ascorbic acid, sirolimus, and paclitaxel) of samples.
In general terms: The colour change of resazurin is a common sign of viable cells or microbes.

For experiment [4], the system named is smooth muscle cells. As to the kind of experiment: FDA staining and fluorescence microscopy of smooth muscle cells (Example Nine). Conditions: for smooth muscle cell growth from one time point to the other: FDA staining, days 1 to 7; for confluence of smooth muscle cells: after 7 days. The text has this:
Example 9 provides a qualitative characterization of the Example Eight results using flurorescence microscopy. More specifically, the growth of smooth muscle cells in the presence of three different treatments (ascorbic acid, paclitaxel, and sirolimus) was investigated by staining the live cells with fluorescein diacetate (FDA). The FDA-stained live cells were then imaged using flurorescence microscopy on day 1, day 3, day 5, and day 7 of culture. On each day, a determination of growth (viability and proliferation) of smooth muscle cells was made.

Experiment [5] has as its system smooth muscle cells. As to the kind of experiment: Phase contrast microscopy of smooth muscle cell morphology (Example Ten). Conditions: day 7, phase contrast. An excerpt: Example 10 provides a further qualitative characterization of the Example Eight results using phase contrast microscopy. That is, the effects of L-AA, SIR, and PAT on the growth of smooth muscle cells was investigated by taking phase contrast images of cells after 7 days using an Axiovert 200 M inverted microscopy (Carl Zeiss) in the bright field imaging mode and examining the cell morphology.

Experiment [6] deals with endothelial cells. As to the kind of experiment: Resazurin fluorometric assay (Alamar Blue) of endothelial cell cultures (Example Two). Conditions: RFU, FIG. 5. As to the method: as §1, with “order to provide” for “Example 8,”, “quantitative characterization of the Example One results, a” for “quantitative”, “assay (Alamar Blue)” for “assay”, “Alamar Blue” for “alamarBlue® from a kit purchased from Biotium Inc. (in Hayward, Calif.)”, “endothelial” for “smooth muscle”, “was” for “was also”

For experiment [7], the system named is endothelial cells. As to the kind of experiment: Resazurin fluorometric assay of endothelial cells, different doses of ascorbic acid (Example Seven). As for the experimental part:
(§2) In Example 7, a quantitative resazurin fluorometric assay was used. A solution of alamarBlue® from a kit purchased from Biotium Inc. (in Hayward, Calif.) was added to the endothelial cell cultures which were already treated with different doses of ascorbic acid. More specifically, the different doses of ascorbic acid included 1 μg/mL, 100 μg/mL, 300 μg/mL, 500 μg/mL, and 1000 μg/mL. A control lacking any ascorbic acid was also included. After respective time points (1, 3, 5, and 7 days), the fluorescence of the solution was measured using a microplate reader. The collected data is provided as relative fluorescence units (RFU) vs. time for all the six groups (control, 1 μg/mL, 100 μg/mL, 300 μg/mL, 500 μg/mL, and 1000 μg/mL) of samples.

For experiment [8], the system named is smooth muscle cells. The experiment is described as follows: Resazurin fluorometric assay of smooth muscle cells, different doses of ascorbic acid (Example Eleven). As to the method: as §2, with “11,” for “7,”, “smooth muscle” for “the endothelial”
For experiment [9], the system named is smooth muscle cells. The experiment is described as follows: FDA staining and fluorescence microscopy of smooth muscle cells, different doses of ascorbic acid (Example Twelve). Conditions: for confluence of smooth muscle cells: after 7 days. The text has this:
Example 12 provides a qualitative characterization of the Example Eleven results using fluorescence microscopy. More specifically, the growth of smooth muscle cells in the presence of five different doses of ascorbic acid was investigated by staining the live cells with fluorescein diacetate (FDA). The FDA-stained live cells were then imaged using fluorescence microscopy on day 1, day 3, day 5, and day 7 of culture. On each day, a determination of growth (viability and proliferation) of smooth muscle cells was made.

Setting [10] is: days 1 to 7, doses 1 to 1000 μg.

On to `CC(=O)O[C@H]1C(=O)[C@@]2(C)[C@H]([C@H](OC(=O)c3ccccc3)[C@]3(O)C[C@H](OC(=O)[C@H](O)[C@@H](NC(=O)c4ccccc4)c4ccccc4)C(C)=C1C3(C)C)[C@]1(OC(C)=O)CO[C@@H]1C[C@@H]2O` [paclitaxel], for which the endothelial cell adhesion result in the experiment on endothelial cells [1] is reported as “poor”. Moreover, the “spreading of endothelial cells” value in the experiment on endothelial cells [1] (100 μg added) is recorded as “poor”. Moreover, in the experiment with endothelial cells [1] (100 μg added, day 7), the “growth (viability and proliferation) of endothelial cells” value is “poor”. Besides, the endothelial cell morphology result in the experiment with endothelial cells [2] is reported as “uncharacteristic oval or round shape with no spreading morphology”. Moreover, in the experiment on smooth muscle cells [3], the “number of smooth muscle cells in comparison to the control” value was “significantly lesser number of cells” and the “smooth muscle cell growth vs control” value is reported as “significantly inhibited the cell growth”. The “number of smooth muscle cells vs ascorbic acid treatment” value in the experiment on smooth muscle cells [3] (day 5 (similar on day 7)) is given as “lesser numbers of cells than that of the ascorbic acid treatment”. The “order of SMC viability and proliferation (decreasing)” value with smooth muscle cells [3] (days 1 to 7) is listed as “Control>>ascorbic acid>sirolimus=paclitaxel”. In addition, in the experiment with smooth muscle cells [4], the “smooth muscle cell growth from one time point to the other” value is listed as “significantly inhibited” and the “confluence of smooth muscle cells” value is on record as “about 20%”. Further, the “smooth muscle cell morphology and spreading” value in the experiment on smooth muscle cells [5] is “not spreading and only very few cells were spindle-shaped”.
With `CO[C@H]1C[C@@H]2CC[C@@H](C)[C@@](O)(O2)C(=O)C(=O)N2CCCC[C@H]2C(=O)O[C@H]([C@H](C)C[C@@H]2CC[C@@H](O)[C@H](OC)C2)CC(=O)[C@H](C)/C=C(\C)[C@@H](O)[C@@H](OC)C(=O)[C@H](C)C[C@H](C)/C=C/C=C/C=C/1C` [sirolimus], the “confluence of smooth muscle cells” value with smooth muscle cells [4] is “about 20%”.
As for `O=C1O[C@H]([C@@H](O)CO)C(O)=C1O` [ascorbic acid, L-ascorbic acid], in the experiment on endothelial cells [1], the endothelial cell adhesion result was “excellent”. For the same molecule, in the experiment with endothelial cells [1] (100 μg added), the “spreading of endothelial cells” value is “excellent”. Moreover, the “growth (viability and proliferation) of endothelial cells” value with endothelial cells [1] (100 μg added, day 7) is given as “excellent”. The “growth of endothelial cells in comparison to the control” value in the experiment with endothelial cells [1] (100 μg added, day 7) is listed as “more growth in comparison to the control”. In the experiment on endothelial cells [6], the “growth of endothelial cells relative to cells treated with paclitaxel” value came out at 10 fold. In addition, the “growth of endothelial cells relative to cells treated with sirolimus” value in the experiment with endothelial cells [6] stood at 19 fold. Further, the “growth of endothelial cells relative to control (no drug)” value with endothelial cells [6] is reported as 1.6 fold. For the same molecule, the endothelial cell morphology result in the experiment with endothelial cells [2] was “spreading morphology with characteristic polygonal shape”. Besides, in the experiment with endothelial cells [7] (day 1, all doses (1 to 1000 μg/mL)), the “number of endothelial cells vs control” value is “no significant differences”. The “number of endothelial cells vs control and other doses” value with endothelial cells [7] (day 3, 100 μg dose) was “significantly greater”; with endothelial cells [7] (day 5, 100 μg dose) it was “significantly greater number of cells”; in the experiment with endothelial cells [7] (day 5, 300 μg dose), “significantly greater number of cells”; in the experiment with endothelial cells [7] (day 5, 500 μg dose) it was “significantly greater number of cells”. Besides, the “number of endothelial cells among the groups” value in the experiment with endothelial cells [7] (day 7, 300 μg/mL dose) is listed as “maximum number of cells”; in the experiment with endothelial cells [7] (day 7, 100 dose), “maximum number of cells”. For the same molecule, in the experiment on endothelial cells [7] (setting [10]), the “order of viability and proliferation of endothelial cells for the different doses (increasing)” value is reported as 1000 μg<1 μg=control=500 μg<<300 μg=100 μg. Besides, the “number of smooth muscle cells in comparison to the control” value in the experiment on smooth muscle cells [3] is “significantly lesser number of cells”. Besides, in the experiment with smooth muscle cells [3], the “smooth muscle cell growth vs control” value is “significantly inhibited the cell growth”. Also, the “effect on growth of SMCs (overall)” value with smooth muscle cells [3] (days 1 to 7) is “significantly inhibited growth of SMCs”. In the experiment with smooth muscle cells [3] (days 1 to 7), the “order of SMC viability and proliferation (decreasing)” value is reported as “Control>>ascorbic acid>sirolimus=paclitaxel”. In the experiment on smooth muscle cells [4], the “smooth muscle cell growth from one time point to the other” value was “significantly inhibited”. The “confluence of smooth muscle cells” value is recorded as 50-60% in the experiment with smooth muscle cells [4]; above 90% with smooth muscle cells [9] (1 μg dose); 50-60% in the experiment on smooth muscle cells [9] (100 μg dose); 50-60% in the experiment with smooth muscle cells [9] (300 μg dose); 30-40% with smooth muscle cells [9] (500 μg dose); 30-40% with smooth muscle cells [9] (1000 μg dose). Moreover, in the experiment with smooth muscle cells [5], the “smooth muscle cell morphology and spreading” value is “spindle-shaped, but they were less spreading when compared to the control”. For the same molecule, the “number of smooth muscle cells vs control and 1 μg dose” value in the experiment with smooth muscle cells [8] (day 1, doses 100 to 1000 μg) is “significantly fewer cells”. Also, in the experiment with smooth muscle cells [8] (day 3 (similar days 5 and 7), 500 and 1000 μg doses), the “number of smooth muscle cells vs 100 and 300 μg doses” value is “fewer cells in comparison to the 100 and 300 μg doses”. Moreover, the “order of viability and proliferation of smooth muscle cells for the different doses (decreasing)” value in the experiment with smooth muscle cells [8] (setting [10]) is “control=1 μg>>100 μg=300 μg>500 μg=1000 μg”. Besides, the “inhibitory effect on smooth muscle cells” value is recorded as “no inhibitory effect” in the experiment on smooth muscle cells [9] (1 μg dose) and “maximum inhibitory effect” with smooth muscle cells [9] (1000 μg dose). The “smooth muscle cell growth” value in the experiment on smooth muscle cells [9] (doses ranging from 100 to 1000 μg, days 1 to 7) is “significantly inhibited”.

(Values after patent US20150182675A1, “Ascorbic Acid-Eluting Implantable Medical Devices, Systems, and Related Methods” (South Dakota Board of Regents, priority 2012, published 2015).)
